Broadly, the IC50 is the point on the concentration scale where inhibition reaches its midpoint.

Results on seven compounds are retold here after patent US9296734B2 (AMGEN INC., priority 2013, dated 2016).

Read-outs that look alike come from different tables or passages of the source.

Data set [1] deals with Beta Secretase enzyme (BACE) (Homo sapiens (Human), UniProt P56817). Kind of data set: In vitro enzymatic BACE FRET assay. It is filed as biochemical. The conditions noted are these: read-out: BACE 1 FRET assay IC50. The gist of the method: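 A quenched fluorophore-peptide spanning the BACE cleavage site served as substrate at 50 nM, with one-hour incubation in pH 4.2 acetate buffer containing 100 uM genapol and 10% DMSO final. Fluorescence was measured after quenching with Tris to neutral pH.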
Sequence of Beta Secretase enzyme (BACE) (P56817 46-501): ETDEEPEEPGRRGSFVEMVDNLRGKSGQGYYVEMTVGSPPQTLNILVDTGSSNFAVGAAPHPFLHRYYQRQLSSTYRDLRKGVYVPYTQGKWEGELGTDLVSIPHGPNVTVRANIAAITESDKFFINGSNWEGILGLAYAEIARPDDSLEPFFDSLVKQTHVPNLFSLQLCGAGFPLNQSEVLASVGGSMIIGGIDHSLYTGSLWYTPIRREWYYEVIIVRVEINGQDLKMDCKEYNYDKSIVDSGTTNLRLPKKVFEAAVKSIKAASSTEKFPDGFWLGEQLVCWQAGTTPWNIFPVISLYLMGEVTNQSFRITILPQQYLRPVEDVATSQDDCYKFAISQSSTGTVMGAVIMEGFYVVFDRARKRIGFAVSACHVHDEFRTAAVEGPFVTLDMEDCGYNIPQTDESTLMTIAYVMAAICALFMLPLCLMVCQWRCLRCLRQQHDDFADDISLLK

Data set [2] concerns Aβ40 in conditioned medium of cells stably expressing Amyloid Precursor Protein (APP). Kind of data set: In vitro BACE cell-based assay (Aβ40 sandwich ELISA). The conditions noted are these: Homo sapiens, read-out: HEK cell assay IC50. The gist of the method:
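Aβ40 in supernatants was measured by time-resolved fluorescence sandwich ELISA using pAb40 capture and biotinylated 6E10 detection, with antibody incubations at 4 °C. Stable APP cells were exposed to compounds for 24 h in a 10-point series (top dose 100 or 10 µM, 0.1% DMSO). IC50 was fitted from the concentration-response.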

For data set [3], the target named is Cathepsin D (Cat D) (Homo sapiens (Human), UniProt P07339). In words: In vitro enzymatic Cathepsin D (Cat D) FRET assay. The data set is classed as biochemical. The conditions noted are these: read-out: CatD IC50. The gist of the method: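 CHO-expressed recombinant Cat D cleaves a fluorophore/quencher FRET peptide (20 nM) in 0.05 M citrate pH 3.5, 5 mM CHAPS, 10% DMSO final, over 1 h. Tris addition neutralizes pH to stop the reaction; fluorescence read at excitation 500 nm, emission 580 nm.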
Sequence of Cathepsin D (Cat D) (P07339 65-412, species assumed): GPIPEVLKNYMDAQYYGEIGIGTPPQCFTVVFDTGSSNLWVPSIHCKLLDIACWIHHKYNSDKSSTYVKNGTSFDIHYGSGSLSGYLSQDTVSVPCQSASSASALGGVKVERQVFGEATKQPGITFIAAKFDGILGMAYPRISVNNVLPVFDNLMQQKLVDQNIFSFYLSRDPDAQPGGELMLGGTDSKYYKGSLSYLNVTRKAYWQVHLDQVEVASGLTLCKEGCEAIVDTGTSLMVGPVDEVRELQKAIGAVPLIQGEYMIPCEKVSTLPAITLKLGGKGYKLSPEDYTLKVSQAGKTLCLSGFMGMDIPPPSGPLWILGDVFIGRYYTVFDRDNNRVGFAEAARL

Data set [4] concerns Abeta 40 in CSF and brain. Kind of data set: In vivo inhibition of beta-secretase: Abeta 40 reduction in CSF and brain of the rat. The conditions noted are these: 10 mpk (unless otherwise noted), after 4 hrs. The text has this: In Vivo Inhibition of Beta-Secretase
Several animal models, including mouse, rat, dog, and monkey, may be used to screen for inhibition of beta-secretase activity in vivo following administration of a test compound sample. Animals used in this invention can be wild type, transgenic, or gene knockout animals. […] A separate group of animals receive 2% hydroxypropyl methylcellulose, 1% Tween80 alone, containing no test compound, and serve as a vehicle-control group. At the end of the test period, animals are sacrificed and brain tissues, plasma or cerebrospinal fluid are collected. […] Homogenates are centrifuged at 355,000 g, 4° C. for 30 minutes. CSF or brain supernatants are then analyzed for the presence of A-beta peptide by specific sandwich ELISA assays based on ECL (Electrochemiluminescence) technology. For example, rat Abeta40 is measured using biotinylated-4G8 (Signet) as a capture antibody and Fab40 (an in-house antibody specific to the C-terminal of Abeta40) as a detection antibody.
Actual vehicles used: Oral: 2% HPMC, 1% Tween80, pH 2.2

Data set [5] deals with Aβ in lumbar CSF. The conditions noted are these: healthy volunteers, oral dosing of 30 or 90 mg; cited from earlier work.
For data set [6] the following is noted: higher compound dose given for three months; cited from earlier work.
The subject of data set [7] is CSF Aβ40. The conditions noted are these: healthy individuals, 36 h post-dose, cited from earlier work.
The mark [8] stands for this setting: average IC50, BACE enzyme assay.
The mark [9] stands for this setting: HEK293, average IC50, HEK cell assay.
[10] abbreviates: average IC50, cathepsin D enzyme assay.
[11] abbreviates: Abeta 40, rat CSF, read-out: % reduction of rat CSF levels at 10 pmk.
Setting [12] is: Abeta 40, rat brain, read-out: % reduction of rat brain levels at 10 mpk.

Consider `COc1cnc(C(=O)Nc2cc(F)c(F)c([C@]3(C)C[C@@H](C(F)(F)F)OC(N)=N3)c2)c(Cl)c1` [Example 169, N-(3-((4S,6S)-2-amino-4-methyl-6-(trifluoromethyl)-5,6-dihydro-4H-1,3-oxazin-4-yl)-4,5-difluorophenyl)-3-chloro-5-methoxypicolinamide], for which the 50% inhibitory concentration (IC50) was 0.037 µM in data set [1] (setting [8]), 0.0089 µM in data set [2] (setting [9]) and over 400 µM in data set [3] (setting [10]). Besides, the results for the inhibition in vivo at 10 mg/kg in data set [4] (setting [11]) and in data set [4] (setting [12]) were 48% and 46%, respectively.

For `Cc1cc(C(F)F)cnc1C(=O)Nc1cc(F)c(F)c([C@]2(C)C[C@@H](C(F)(F)F)OC(N)=N2)c1` [Example 171, N-(3-((4S,6S)-2-amino-4-methyl-6-(trifluoromethyl)-5,6-dihydro-4H-1,3-oxazin-4-yl)-4,5-difluorophenyl)-5-(difluoromethyl)-3-methylpicolinamide], the results for the 50% inhibitory concentration (IC50) in data set [1] (setting [8]), in data set [2] (setting [9]) and in data set [3] (setting [10]) were 0.043 µM, 0.017 µM and 2060 µM, respectively. Moreover, the inhibition in vivo at 10 mg/kg in data set [4] (setting [11]) was found to be 25%; in data set [4] (setting [12]) it was 10%.

On to `Cc1cc(NC(=O)c2ccc(Cl)cn2)cc([C@]2(CF)C[C@@H](C(F)(F)F)OC(N)=N2)c1F` [Example 224, N-(3-((4S,6S)-2-amino-4-(fluoromethyl)-6-(trifluoromethyl)-5,6-dihydro-4H-1,3-oxazin-4-yl)-4-fluoro-5-methylphenyl)-5-chloropicolinamide], for which the 50% inhibitory concentration (IC50) worked out at 0.013 µM in data set [1] (average); 0.007 µM in data set [2] (HEK293, HEK cells, average); 515 µM in data set [3] (average). Also, the inhibition in vivo at 10 mg/kg in data set [4] (setting [11]) is 62%; in data set [4] (setting [12]) it was 51%.

In the case of `COc1cnc(C(=O)Nc2cc(C)c(F)c([C@]3(CF)C[C@@H](C(F)(F)F)OC(N)=N3)c2)cn1` [Example 227, N-(3-((4S,6S)-2-amino-4-(fluoromethyl)-6-(trifluoromethyl)-5,6-dihydro-4H-1,3-oxazin-4-yl)-4-fluoro-5-methylphenyl)-5-methoxypyrazine-2-carboxamide], the half-maximal inhibitory concentration (IC50) was 0.03 µM in data set [1] (average); 0.023 µM in data set [2] (HEK293, HEK cells, average); over 400 µM in data set [3] (average). In addition, the inhibition in vivo at 10 mg/kg in data set [4] (setting [11]) was 69%; in data set [4] (setting [12]), 65%.

Regarding `C[C@@]1(c2cc(-c3cncnc3)c(F)cc2F)CCSC(N)=N1` [LY2811376, (S)-4-(2,4-difluoro-5-pyrimidin-5-yl-phenyl)-4-methyl-5,6-dihydro-4H-[1,3]thiazin-2-ylamine], the “Aβ reductions in lumbar CSF” value in data set [5] was “Prominent and long-lasting Aβ reductions in lumbar CSF”.

With `C[C@@]1(c2cc(-c3cncnc3)c(F)cc2F)CCSC(N)=N1` [LY 2811376], in data set [6], the rat toxicology finding result is on record as “damaged the pigment epithelium of the rat's eye”.

Take `CN1C(=N)N[C@](C)(c2cc(NC(=O)c3ccc(F)cn3)ccc2F)CS1(=O)=O` [MK-8931]: the “reduction of CSF Aβ40 concentrations” value in data set [7] (single dose of 100 mg) is recorded as 75%; in data set [7] (single dose of 550 mg), 92%.
